Experimental data from PMC10004634 (PLOS ONE, 2023).
Like-named read-outs stand apart in the source and are kept apart here.

What was measured:
Test in all cases: biochemical
Set-up in all cases: KINOMEscan scanMAX competition binding, DNA-tagged kinases, qPCR read-out, percent control at 300 nM
BTK = BTK (Homo sapiens, UniProt Q06187)
ACVRL1 = ACVRL1 (Homo sapiens, UniProt P37023)
CLK4 = CLK4 (Homo sapiens, UniProt Q9HAZ1)
HPK1 = biological target: T1, HPK1 (Homo sapiens, UniProt Q92918)
T1 construct: gene MAP4K1

ERK1 = biological target: T2, ERK1 (Homo sapiens, UniProt P27361)
T2 construct: gene MAPK3

[1] = biological target: T3, TYK2(JH1domain-catalytic) (Homo sapiens, UniProt P29597)
T3 construct: JH1domain-catalytic

[2] = biological target: T4, ABL1(E255K)-phosphorylated (Homo sapiens, UniProt P00519, E255K)
T4 construct: phosphorylated

DCAMKL2 = biological target: T5, DCAMKL2 (Homo sapiens, UniProt Q8N568)
T5 construct: gene DCLK2

[3] = biological target: T6, RPS6KA4(Kin.Dom.2-C-terminal) (Homo sapiens, UniProt O75676)
T6 construct: Kin.Dom.2-C-terminal

PAK4 = PAK4 (Homo sapiens, UniProt O96013)
PIP5K2B = biological target: T7, PIP5K2B (Homo sapiens, UniProt P78356)
T7 construct: gene PIP4K2B

CDK7 = CDK7 (Homo sapiens, UniProt P50613)
SgK110 = biological target: T8, SgK110 (Homo sapiens, UniProt P0C264)
T8 construct: gene SBK3

ERK5 = biological target: T9, ERK5 (Homo sapiens, UniProt Q13164)
T9 construct: gene MAPK7

FGFR1 = FGFR1 (Homo sapiens, UniProt P11362)
SRPK2 = SRPK2 (Homo sapiens, UniProt P78362)
MST4 = biological target: T10, MST4 (Homo sapiens, UniProt Q9P289)
T10 construct: gene STK26

EPHB3 = EPHB3 (Homo sapiens, UniProt P54753)
RAF1 = RAF1 (Homo sapiens, UniProt P04049)
TBK1 = TBK1 (Homo sapiens, UniProt Q9UHD2)
ULK3 = ULK3 (Homo sapiens, UniProt Q6PHR2)
STK36 = STK36 (Homo sapiens, UniProt Q9NRP7)
DRAK2 = biological target: T11, DRAK2 (Homo sapiens, UniProt O94768)
T11 construct: gene STK17B

[4] = read-out: Percent control / Tirabrutinib
[5] = read-out: Percent control / Zanubrutinib
[6] = read-out: Percent control / Acalabrutinib
[7] = read-out: Percent control / Ibrutinib

BTK, sequence (Q06187 whole entry): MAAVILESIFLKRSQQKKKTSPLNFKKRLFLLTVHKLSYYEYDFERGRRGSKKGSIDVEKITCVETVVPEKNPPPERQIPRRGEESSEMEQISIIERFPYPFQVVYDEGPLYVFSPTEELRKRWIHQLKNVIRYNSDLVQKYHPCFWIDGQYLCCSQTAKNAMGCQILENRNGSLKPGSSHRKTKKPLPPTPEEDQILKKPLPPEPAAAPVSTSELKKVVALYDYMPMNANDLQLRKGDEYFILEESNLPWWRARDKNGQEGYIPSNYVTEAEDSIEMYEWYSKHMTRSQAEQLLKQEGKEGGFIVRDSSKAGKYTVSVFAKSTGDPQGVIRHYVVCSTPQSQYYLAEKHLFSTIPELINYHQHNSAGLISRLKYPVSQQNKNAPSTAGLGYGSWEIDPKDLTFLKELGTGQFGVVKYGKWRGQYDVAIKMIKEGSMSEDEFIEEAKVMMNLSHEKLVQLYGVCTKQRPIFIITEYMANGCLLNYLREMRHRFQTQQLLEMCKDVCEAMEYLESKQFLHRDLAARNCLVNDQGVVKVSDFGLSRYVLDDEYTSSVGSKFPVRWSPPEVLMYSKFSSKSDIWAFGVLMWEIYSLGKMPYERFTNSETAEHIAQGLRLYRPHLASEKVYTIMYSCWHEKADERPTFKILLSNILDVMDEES
SRPK2, sequence (P78362 whole entry): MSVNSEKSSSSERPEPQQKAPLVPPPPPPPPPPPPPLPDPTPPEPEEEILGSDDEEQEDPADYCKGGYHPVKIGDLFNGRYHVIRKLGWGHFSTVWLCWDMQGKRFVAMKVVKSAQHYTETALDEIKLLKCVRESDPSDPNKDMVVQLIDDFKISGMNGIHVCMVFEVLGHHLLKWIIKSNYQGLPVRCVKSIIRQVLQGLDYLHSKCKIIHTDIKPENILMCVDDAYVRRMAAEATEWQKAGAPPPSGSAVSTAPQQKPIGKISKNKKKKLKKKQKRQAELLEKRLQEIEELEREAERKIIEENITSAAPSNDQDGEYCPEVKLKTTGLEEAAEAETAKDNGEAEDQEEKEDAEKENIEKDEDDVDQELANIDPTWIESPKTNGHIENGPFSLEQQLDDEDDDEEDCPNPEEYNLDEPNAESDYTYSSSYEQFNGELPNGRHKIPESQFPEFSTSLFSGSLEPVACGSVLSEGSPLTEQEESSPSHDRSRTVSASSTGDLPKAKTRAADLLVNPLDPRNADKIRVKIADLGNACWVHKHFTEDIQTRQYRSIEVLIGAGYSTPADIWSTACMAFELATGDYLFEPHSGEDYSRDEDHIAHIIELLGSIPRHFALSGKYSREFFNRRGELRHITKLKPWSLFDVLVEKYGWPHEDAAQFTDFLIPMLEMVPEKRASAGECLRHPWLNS
T2 sequence (P27361 whole entry): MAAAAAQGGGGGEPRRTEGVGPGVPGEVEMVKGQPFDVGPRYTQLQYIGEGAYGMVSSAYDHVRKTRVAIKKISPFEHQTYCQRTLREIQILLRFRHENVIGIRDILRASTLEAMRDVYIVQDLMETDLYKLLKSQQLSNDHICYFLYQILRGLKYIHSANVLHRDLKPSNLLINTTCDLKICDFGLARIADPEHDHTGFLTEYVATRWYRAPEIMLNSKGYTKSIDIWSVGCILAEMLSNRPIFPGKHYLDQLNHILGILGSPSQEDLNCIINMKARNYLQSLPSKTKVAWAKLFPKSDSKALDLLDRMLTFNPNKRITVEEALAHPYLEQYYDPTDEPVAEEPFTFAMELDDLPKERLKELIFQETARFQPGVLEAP
T3 sequence (P29597 whole entry): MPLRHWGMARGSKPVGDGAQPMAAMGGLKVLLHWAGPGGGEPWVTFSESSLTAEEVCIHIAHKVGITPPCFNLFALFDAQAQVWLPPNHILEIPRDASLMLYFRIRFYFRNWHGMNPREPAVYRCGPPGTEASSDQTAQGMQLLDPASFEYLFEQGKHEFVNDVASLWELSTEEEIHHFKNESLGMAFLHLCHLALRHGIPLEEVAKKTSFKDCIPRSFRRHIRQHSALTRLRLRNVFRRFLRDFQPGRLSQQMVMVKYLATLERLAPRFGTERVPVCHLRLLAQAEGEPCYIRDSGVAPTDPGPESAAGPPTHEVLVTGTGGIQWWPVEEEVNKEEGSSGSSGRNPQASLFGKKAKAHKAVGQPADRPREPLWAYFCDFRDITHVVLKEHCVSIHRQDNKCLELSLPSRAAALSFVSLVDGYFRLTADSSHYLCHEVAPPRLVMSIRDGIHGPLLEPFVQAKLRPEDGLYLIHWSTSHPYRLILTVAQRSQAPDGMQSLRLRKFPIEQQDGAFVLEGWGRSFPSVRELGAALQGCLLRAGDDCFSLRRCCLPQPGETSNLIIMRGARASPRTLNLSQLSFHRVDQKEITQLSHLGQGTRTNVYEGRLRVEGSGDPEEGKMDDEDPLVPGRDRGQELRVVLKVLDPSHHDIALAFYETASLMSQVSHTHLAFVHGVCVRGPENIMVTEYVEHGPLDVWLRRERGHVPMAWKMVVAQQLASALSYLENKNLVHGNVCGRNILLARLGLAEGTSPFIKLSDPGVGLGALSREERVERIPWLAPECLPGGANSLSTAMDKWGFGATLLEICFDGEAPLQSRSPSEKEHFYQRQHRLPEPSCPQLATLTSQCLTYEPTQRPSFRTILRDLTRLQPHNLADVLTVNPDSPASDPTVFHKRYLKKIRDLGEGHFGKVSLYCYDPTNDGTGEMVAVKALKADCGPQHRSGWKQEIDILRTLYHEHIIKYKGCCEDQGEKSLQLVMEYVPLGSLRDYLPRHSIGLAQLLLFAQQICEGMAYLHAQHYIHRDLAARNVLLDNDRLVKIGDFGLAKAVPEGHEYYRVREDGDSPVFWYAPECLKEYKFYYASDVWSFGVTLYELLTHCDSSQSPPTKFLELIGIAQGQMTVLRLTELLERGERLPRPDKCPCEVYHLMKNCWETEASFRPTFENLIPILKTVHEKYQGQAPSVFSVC
T6 sequence (O75676 whole entry): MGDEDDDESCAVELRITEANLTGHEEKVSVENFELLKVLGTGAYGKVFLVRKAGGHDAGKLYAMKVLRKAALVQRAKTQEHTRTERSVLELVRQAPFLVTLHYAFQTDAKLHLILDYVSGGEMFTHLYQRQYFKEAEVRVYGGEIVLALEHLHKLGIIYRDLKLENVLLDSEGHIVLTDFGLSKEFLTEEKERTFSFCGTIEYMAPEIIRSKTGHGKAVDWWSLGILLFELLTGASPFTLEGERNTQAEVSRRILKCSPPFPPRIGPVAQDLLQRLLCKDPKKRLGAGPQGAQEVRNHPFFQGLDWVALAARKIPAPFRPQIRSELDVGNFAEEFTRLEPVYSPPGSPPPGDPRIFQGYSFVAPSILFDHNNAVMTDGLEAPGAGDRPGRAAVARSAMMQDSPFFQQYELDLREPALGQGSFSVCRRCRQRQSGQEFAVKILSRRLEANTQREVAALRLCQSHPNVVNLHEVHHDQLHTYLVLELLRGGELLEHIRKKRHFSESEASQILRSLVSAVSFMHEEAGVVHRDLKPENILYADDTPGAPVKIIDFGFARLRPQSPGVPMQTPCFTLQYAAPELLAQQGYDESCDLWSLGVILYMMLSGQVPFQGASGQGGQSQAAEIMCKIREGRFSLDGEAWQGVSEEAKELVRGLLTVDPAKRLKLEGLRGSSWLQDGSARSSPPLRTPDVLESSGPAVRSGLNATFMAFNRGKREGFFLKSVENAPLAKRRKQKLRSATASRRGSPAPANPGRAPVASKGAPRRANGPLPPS
TBK1, sequence (Q9UHD2 whole entry): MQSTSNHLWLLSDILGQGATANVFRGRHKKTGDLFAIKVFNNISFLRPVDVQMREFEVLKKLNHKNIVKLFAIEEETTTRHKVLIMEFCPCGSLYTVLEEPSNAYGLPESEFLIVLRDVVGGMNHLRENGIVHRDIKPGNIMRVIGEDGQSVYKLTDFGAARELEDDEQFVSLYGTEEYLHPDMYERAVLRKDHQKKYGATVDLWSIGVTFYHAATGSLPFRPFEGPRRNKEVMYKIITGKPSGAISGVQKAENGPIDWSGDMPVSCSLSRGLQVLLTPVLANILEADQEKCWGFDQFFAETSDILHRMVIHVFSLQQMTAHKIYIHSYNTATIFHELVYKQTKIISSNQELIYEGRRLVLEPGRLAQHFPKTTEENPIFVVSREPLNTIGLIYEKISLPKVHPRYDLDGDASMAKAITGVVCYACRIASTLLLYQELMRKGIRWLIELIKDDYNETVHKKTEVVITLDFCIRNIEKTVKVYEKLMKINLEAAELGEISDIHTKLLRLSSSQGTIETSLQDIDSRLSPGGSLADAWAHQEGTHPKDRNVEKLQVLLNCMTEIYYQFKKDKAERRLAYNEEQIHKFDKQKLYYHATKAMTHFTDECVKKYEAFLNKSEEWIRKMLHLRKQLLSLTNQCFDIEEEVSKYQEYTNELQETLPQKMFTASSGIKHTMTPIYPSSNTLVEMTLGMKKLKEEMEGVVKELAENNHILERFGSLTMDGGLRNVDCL
CDK7, sequence (P50613 whole entry): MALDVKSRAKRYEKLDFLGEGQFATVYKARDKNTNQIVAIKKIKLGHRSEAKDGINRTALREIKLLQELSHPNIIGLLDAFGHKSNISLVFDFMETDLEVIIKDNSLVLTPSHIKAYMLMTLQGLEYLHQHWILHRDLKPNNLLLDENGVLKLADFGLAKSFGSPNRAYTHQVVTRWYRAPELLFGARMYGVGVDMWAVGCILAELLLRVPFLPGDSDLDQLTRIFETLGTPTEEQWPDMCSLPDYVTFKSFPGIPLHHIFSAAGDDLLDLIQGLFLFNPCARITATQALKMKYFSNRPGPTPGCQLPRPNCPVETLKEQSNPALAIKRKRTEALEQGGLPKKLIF

SMILES: CC#CC(=O)N1CC[C@@H](n2c(=O)n(-c3ccc(Oc4ccccc4)cc3)c3c(N)ncnc32)C1 [Tirabrutinib]
- remaining binding at 0.3 µM (BTK; [4]): 3%
- remaining binding at 0.3 µM (ACVRL1; [4]): 94%
- remaining binding at 0.3 µM (CLK4; [4]): 82%

SMILES: C=CC(=O)N1CCC([C@@H]2CCNc3c(C(N)=O)c(-c4ccc(Oc5ccccc5)cc4)nn32)CC1 [Zanubrutinib]
- remaining binding at 0.3 µM (HPK1; [5]): 100%
- remaining binding at 0.3 µM (ERK1; [5]): 87%
- remaining binding at 0.3 µM [1, 5]: 82%
- remaining binding at 0.3 µM [2, 5]: 80%
- remaining binding at 0.3 µM (DCAMKL2; [5]): 91%
- remaining binding at 0.3 µM [3, 5]: 100%
- remaining binding at 0.3 µM (ACVRL1; [5]): 75%
- remaining binding at 0.3 µM (PAK4; [5]): 85%
- remaining binding at 0.3 µM (PIP5K2B; [5]): 88%
- remaining binding at 0.3 µM (CDK7; [5]): 100%
- remaining binding at 0.3 µM (SgK110; [5]): 91%
- remaining binding at 0.3 µM (ERK5; [5]): 84%
- remaining binding at 0.3 µM (FGFR1; [5]): 68%
- remaining binding at 0.3 µM (SRPK2; [5]): 96%
- remaining binding at 0.3 µM (MST4; [5]): 63%
- remaining binding at 0.3 µM (EPHB3; [5]): 96%
- remaining binding at 0.3 µM (RAF1; [5]): 88%
- remaining binding at 0.3 µM (CLK4; [5]): 99%
- remaining binding at 0.3 µM (TBK1; [5]): 93%
- remaining binding at 0.3 µM (ULK3; [5]): 82%

SMILES: CC#CC(=O)N1CCC[C@H]1c1nc(-c2ccc(C(=O)Nc3ccccn3)cc2)c2c(N)nccn12 [Acalabrutinib]
- remaining binding at 0.3 µM (HPK1; [6]): 93%
- remaining binding at 0.3 µM (ERK1; [6]): 92%
- remaining binding at 0.3 µM [2, 6]: 95%
- remaining binding at 0.3 µM (DCAMKL2; [6]): 90%
- remaining binding at 0.3 µM (BTK; [6]): 0.3%
- remaining binding at 0.3 µM (STK36; [6]): 90%
- remaining binding at 0.3 µM [3, 6]: 96%
- remaining binding at 0.3 µM (PAK4; [6]): 93%
- remaining binding at 0.3 µM (PIP5K2B; [6]): 93%
- remaining binding at 0.3 µM (CDK7; [6]): 68%
- remaining binding at 0.3 µM (SgK110; [6]): 94%
- remaining binding at 0.3 µM (DRAK2; [6]): 97%
- remaining binding at 0.3 µM (ERK5; [6]): 97%
- remaining binding at 0.3 µM (SRPK2; [6]): 90%
- remaining binding at 0.3 µM (EPHB3; [6]): 91%
- remaining binding at 0.3 µM (RAF1; [6]): 75%
- remaining binding at 0.3 µM (TBK1; [6]): 91%
- remaining binding at 0.3 µM (ULK3; [6]): 91%

SMILES: C=CC(=O)N1CCC[C@@H](n2nc(-c3ccc(Oc4ccccc4)cc3)c3c(N)ncnc32)C1 [Ibrutinib]
- remaining binding at 0.3 µM [1, 7]: 87%
- remaining binding at 0.3 µM (STK36; [7]): 71%
- remaining binding at 0.3 µM (DRAK2; [7]): 82%
- remaining binding at 0.3 µM (FGFR1; [7]): 66%
- remaining binding at 0.3 µM (MST4; [7]): 89%
